The results in this text go back to US9877962B2, “Piperazinyl derivatives for the treatment of cancer” (priority 2011, dated 2018).

Like-named read-outs stand apart in the source and are kept apart here.

Common to all, as to type: cell-based, human
Assay [1] concerns HL-60. Description: Cytotoxicity test (ViaLight Plus cell proliferation) on HL-60. Particulars: 72 hours' incubation, cell viability vs 0.5% DMSO control; for IC50: Homo sapiens, read-out: EC50 HL-60. The source says: (§1) The effects of the compounds of the invention on the proliferation of cancer cells were studied on different human cancer cell lines of different tissue origin (MCF-7: breast cancer, MCF-7/adr adriamycin-resistant breast cancer, HL-60: acute promyelocytic leukaemia, HL-60/R10: doxorubicin-resistant acute promyelocytic leukaemia, HT29: colon adenocarcinoma, Mia Paca2: pancreatic tumour, Panc-1: pancreatic exocrine tumour, SK-OV-3: cisplatin- and adriamycin resistant ovarian cancer). The cancer cells used for this study were incubated at 37° C. in the presence of one of the compounds of the invention added to the culture medium at different concentrations.
(§2) The cancer cell lines were obtained from ATCC (American Type Culture Collection) for MCF-7, from Hôpital de la Pitié Salpetrière for MCF-7/adr and from Oncodesign (Dijon, France) for HL-60, HL-60/R10, HT29, MiaPaCa2, Panc-1 and SK-OV-3. They were cultured in RPMI 1640 medium containing 2 mM L-Glutamine supplemented with 10% foetal calf serum (Lonza; Verviers, Belgium). All the cell lines were held in culture at 37° C. in a humid atmosphere containing 5% CO2. Cell proliferation was assessed using the ViaLight® Plus Assay Kit (Lonza; Verviers, Belgium) following the manufacturer's instructions. The cells were seeded in 96-well culture plates compatible with luminescence read-off (white plates with transparent bottom) in a proportion of 5 000 to 10 000 cells per well in 100 μl of culture medium. After a pre-incubation time of 24 hours at 37° C., the compounds of the invention dissolved in dimethylsulfoxide (DMSO) were individually added to each well in a proportion of 0.5 μl per well. After 72 hours' incubation at 37° C. in a humid atmosphere containing 5% CO2, 50 μl of lysis buffer were added to each well and 15 minutes later 100 μl of ATP measuring agent were added. The plates were read under a luminometer to evaluate cell viability. The data obtained was processed by computer to obtain the EC50 value i.e. the concentration value of each of the compounds which induces 50% cell viability compared with a control value (0.5% DMSO alone).

Assay [2] has as its system HL-60/R10. Description: Cytotoxicity test (ViaLight Plus cell proliferation) on HL-60/R10. To be noted: doxorubicin-resistant line, 72 hours' incubation, cell viability vs 0.5% DMSO control, read-out: EC50 HL60/R10; for IC50: Homo sapiens.
Text: as §1, §2

Assay [3] deals with MCF-7/adr. Description: Cytotoxicity test (ViaLight Plus cell proliferation) on MCF-7/adr. Particulars: adriamycin-resistant line, 72 hours' incubation, cell viability vs 0.5% DMSO control.
Text: as §1, §2

Take `CC[C@@H]1CN(C(=O)C(c2ccc(F)cc2)N(C(=O)CCl)c2ccc(Oc3ccccc3)cc2C)CCN1C(=O)OC(C)(C)C` (single isomer, unassigned; dia1) [I-16 dia1]: the EC50 came out at 1480 nM in assay [1], 450 nM in assay [2] and 527 nM in assay [3].
The like results for `CC[C@H]1CN(C(=O)C(c2ccc(F)cc2)N(C(=O)CCl)c2ccc(Oc3ccccc3)cc2C)CCN1` (single isomer, unassigned; dia1) [I-17 dia1] were, in that order, 2310 nM, 353 nM and 898 nM.
Turning to `CC[C@@H]1CN(C(=O)C(c2ccc(F)cc2)N(C(=O)CCl)c2ccc(Oc3ccccc3)cc2C)CCN1` (single isomer, unassigned; dia1) [I-18 dia1], the values for the EC50 in assay [1], in assay [2] and in assay [3] were 1600 nM, 140 nM and 485 nM, respectively.
In the case of `CC[C@H]1CN(C(=O)C(c2ccc(F)cc2)N(C(=O)CCl)c2ccc(Oc3ccccc3)cc2)CCN1C(=O)OC(C)(C)C` (single isomer, unassigned; dia1) [I-19 dia1], the EC50 in assay [1] was found to be 516 nM; in assay [2] it was 97 nM; in assay [3], 128 nM.
For the compound `Cc1cc(CCC(C)(C)C)ccc1N(C(=O)CCl)C(C(=O)N1CCNC(C(C)C)C1)c1ccc(F)cc1` (single isomer, unassigned; dia1) [I-25 dia1], the results for the EC50 in assay [1] and in assay [2] were 1120 nM and 43 nM, respectively.
As to `Cc1cc(Oc2ccccc2)ccc1N(C(=O)CCl)C(C(=O)N1CCN(C(=O)OC(C)(C)C)[C@H](C)C1)c1cccs1` (single isomer, unassigned; dia1) [I-40 dia1], the EC50 in assay [1] came out at 2130 nM; in assay [2] it was 248 nM; in assay [3], 371 nM.
In the case of `Cc1cc(Oc2ccccc2)ccc1N(C(=O)CCl)C(C(=O)N1CCN[C@@H](C(C)C)C1)c1cccs1` (single isomer, unassigned; dia1) [I-46 dia1], the figures for the EC50 in assay [2] and in assay [3] were 318 nM and 544 nM, respectively.
Regarding `Cc1cc(Oc2ccccc2)ccc1N(C(=O)CCl)C(C(=O)N1CCN[C@@H](CC(C)C)C1)c1cccs1` (single isomer, unassigned; dia1) [I-47 dia1], the EC50 in assay [1] is 936 nM; in assay [2], 54 nM.
Taken in the same sequence, the figures for `CC(C)[C@H]1CN(C(=O)C(c2cccs2)N(C(=O)CCl)c2cccc(C(F)(F)F)c2)CCN1` (single isomer, unassigned; dia1) [I-50 dia1] were 2100 nM and 259 nM.
As for `CC(C)C[C@H]1CN(C(=O)C(c2cccs2)N(C(=O)CCl)c2ccc(Oc3ccccc3)cc2)CCN1` (single isomer, unassigned; dia1) [I-51 dia1], the EC50 turned out to be 145 nM in assay [1] and 96 nM in assay [2].
As to `Cc1cc(Cl)ccc1N(C(=O)CCl)C(C(=O)N1CCN[C@@H](C(C)C)C1)c1cccs1` (single isomer, unassigned; dia1) [I-52 dia1], in assay [2], the EC50 came out at 194 nM.
In the case of `CC[C@@H]1CN(C(=O)C(c2ccc(F)cc2)N(C(=O)CCl)c2ccc(Oc3ccccc3)cc2C)CCN1C(=O)OC(C)(C)C` (single isomer, unassigned; dia2) [I-16 dia2], the values for the EC50 in assay [1], in assay [2] and in assay [3] were 1910 nM, 317 nM and 443 nM, respectively.
As to `CC[C@H]1CN(C(=O)C(c2ccc(F)cc2)N(C(=O)CCl)c2ccc(Oc3ccccc3)cc2)CCN1C(=O)OC(C)(C)C` (single isomer, unassigned; dia2) [I-19 dia2], the EC50 in assay [1] is 453 nM; in assay [2], 24 nM; in assay [3] it was 35 nM.
For `CC[C@@H]1CN(C(=O)C(c2ccc(F)cc2)N(C(=O)CCl)c2ccc(Oc3ccccc3)cc2)CCN1C(=O)OC(C)(C)C` (single isomer, unassigned; dia2) [I-20 dia2], the EC50 in assay [1] was determined as 1480 nM; in assay [2], 139 nM; in assay [3], 165 nM.
Turning to `Cc1cc(CCC(C)(C)C)ccc1N(C(=O)CCl)C(C(=O)N1CCNC(C(C)C)C1)c1ccc(F)cc1` (single isomer, unassigned; dia2) [I-25 dia2], the EC50 in assay [1] was found to be 819 nM; in assay [2] it was 103 nM.
Regarding `Cc1cc(Oc2ccccc2)ccc1N(C(=O)CCl)C(C(=O)N1CCN(C(=O)OC(C)(C)C)[C@H](C)C1)c1cccs1` (single isomer, unassigned; dia2) [I-40 dia2], the EC50 in assay [2] was determined as 487 nM; in assay [3], 827 nM.
`Cc1cc(Oc2ccccc2)ccc1N(C(=O)CCl)C(C(=O)N1CCN[C@@H](CC(C)C)C1)c1cccs1` (single isomer, unassigned; dia2) [I-47 dia2]: the EC50 in assay [1] stood at 849 nM; in assay [2] it was 8 nM.
Taken in the same sequence, the figures for `CC(C)C[C@H]1CN(C(=O)C(c2cccs2)N(C(=O)CCl)c2ccc(Oc3ccccc3)cc2)CCN1` (single isomer, unassigned; dia2) [I-51 dia2] were 3 nM and 1 nM.
Taken in the same sequence, the figures for `Cc1cc(Cl)ccc1N(C(=O)CCl)C(C(=O)N1CCN[C@@H](C(C)C)C1)c1cccs1` (single isomer, unassigned; dia2) [I-52 dia2] were 223 nM and 24 nM.
Consider `Cc1cc(Oc2ccccc2)ccc1N(C(=O)CCl)C(C(=O)N1CCN(C(=O)OC(C)(C)C)C(C(=O)NCc2ccccc2)C1)c1cccs1` (single isomer, unassigned; dia2) [I-53 dia2], for which the EC50 in assay [1] amounted to 547 nM; in assay [2], 305 nM.
For the compound `Cc1cc(CCC(C)(C)C)ccc1N(C(=O)CCl)C(C(=O)N1CCN[C@@H](C(C)C)C1)c1ccc(F)cc1` (stereo partly drawn) [Example I-23], the IC50 in assay [1] (HL-60, 72 h) was 559 nM; in assay [2] (HL-60, 72 h), 12 nM.
With `Cc1cc(CCC(C)(C)C)ccc1N(C(=O)CCl)C(C(=O)N1C[C@@H](C)N[C@@H](C)C1)c1ccc(F)cc1` (stereo partly drawn) [Example I-24], the IC50 in assay [1] (HL-60, 72 h) is 626 nM; in assay [2] (HL-60, 72 h) it was 15 nM.
Turning to `CC1CN(C(=O)C(c2cccs2)N(C(=O)CCl)c2cccc(C(F)(F)F)c2)CC(C)N1C(=O)OC(C)(C)C` (stereo not drawn) [Example I-28], the IC50 in assay [1] (HL-60, 72 h) amounted to 623 nM; in assay [2] (HL-60, 72 h), 206 nM.
Regarding `Cc1cc(Oc2ccccc2)ccc1N(C(=O)CCl)C(C(=O)N1CCN2CCC[C@H]2C1)c1cccs1` (stereo partly drawn) [Example I-33], the EC50 in assay [2] turned out to be 157 nM; in assay [3], 394 nM.
For the compound `C[C@@H]1CN(C(=O)[C@H](c2cccs2)N(C(=O)CCl)c2ccc(Oc3ccccc3)cc2)C[C@H](C)N1` [Example I-44], the EC50 in assay [1] was determined as 215 nM; in assay [2] it was 7 nM.
As to `Cc1cc(Oc2ccccc2)ccc1N(C(=O)CCl)C(C(=O)N1CCNC(c2ccccc2)C1)c1cccs1` (stereo not drawn) [Example I-45], the IC50 came out at 2140 nM in assay [1] (HL-60, 72 h) and 17 nM in assay [2] (HL-60, 72 h).
In the case of `Cc1cc(Oc2ccccc2)ccc1N(C(=O)CCl)C(C(=O)N1CCNC(Cc2ccccc2)C1)c1cccs1` (stereo not drawn) [Example I-48], the IC50 in assay [1] (HL-60, 72 h) was determined as 1990 nM; in assay [2] (HL-60, 72 h) it was 10 nM.
With `Cc1cc(Cl)ccc1N(C(=O)CCl)C(C(=O)N1C[C@@H](C)N[C@@H](C)C1)c1cccs1` (stereo partly drawn) [Example I-49], the IC50 is 1170 nM in assay [1] (HL-60, 72 h) and 321 nM in assay [2] (HL-60, 72 h).
Turning to `Cc1cc(Oc2ccccc2)ccc1N(C(=O)CCl)C(C(=O)N1CCNCC1)c1ccc(F)cc1` (stereo not drawn) [reference compound], the IC50 in assay [1] (HL-60, 72 h) worked out at 1630 nM; in assay [2] (HL-60, 72 h) it was 226 nM.
Take `C[C@@H]1CNCCN1C(=O)C(c1cccs1)N(C(=O)CCl)c1ccc(Oc2ccccc2)cc1` (stereo partly drawn) [reference compound]: the IC50 in assay [1] (HL-60) stood at 311 nM; in assay [2] (HL-60), 38 nM.
Regarding “tert-butyl ester of 4-[2-[(2-chloro-acetyl)-(4-phenoxy-phenyl)-amino]-2-(4-fluoro-phenyl)-acetyl]-(S)-2-isopropyl-piperazine-1-carboxylic acid [I-1 dia1]”, the EC50 in assay [1] was 1800 nM; in assay [3] it was 338 nM.
On to “tert-butyl ester of 4-[-2-[(2-chloro-acetyl)-(4-phenoxy-phenyl)-amino]-2-(4-fluoro-phenyl)-acetyl]-(R)-2-isopropyl-piperazine-1-carboxylic acid [I-2 dia2]”, for which the EC50 in assay [1] worked out at 2060 nM; in assay [2] it was 472 nM; in assay [3] it was 645 nM.
